Reference: ChEMBL document CHEMBL1201862, “PubChem BioAssay data set” (2004)
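A five-concentration, 48-hour dose response in 96-well plates underlies each endpoint, interpolated linearly between surrounding concentrations. GI50 marks 50% less growth.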 Activity calls are given as the source filed them. Rule as the data show it: active = GI50 up to about 1.1 µM and inactive = higher.

Tests used:
Experiment in all cases: NCI tumour cell line growth inhibition, 48 h
HT-29 = tested on: HT-29
SW-620 = tested on: SW-620
KM12 = tested on: KM12
EKVX = tested on: EKVX
SN12C = tested on: SN12C
NCI-H522 = tested on: NCI-H522
RXF 393 = tested on: RXF 393
CAKI-1 = tested on: CAKI-1
HL-60 = tested on: HL-60
TK-10 = tested on: TK-10
SK-MEL-28 = tested on: SK-MEL-28
Malme-3M = tested on: Malme-3M
NCI-H23 = tested on: NCI-H23
M14 = tested on: M14
A498 = tested on: A498
UACC-257 = tested on: UACC-257

Measured: GI50

c1ccc2c(c1)N=C(c1cccc3ccccc13)CC(c1ccc3c(c1)OCO3)S2 (configuration not stated)
inactive: HT-29 > 100 µM | SW-620 > 100 µM | KM12 > 100 µM | EKVX > 100 µM | SN12C > 100 µM | NCI-H522 > 100 µM | RXF 393 > 100 µM | CAKI-1 > 100 µM | HL-60 > 100 µM | TK-10 > 100 µM | SK-MEL-28 > 10 µM | Malme-3M 70.6 µM | NCI-H23 > 100 µM | M14 25.4 µM | A498 49 µM | UACC-257 > 100 µM

CCOC(=O)C(C)(C)Oc1ccc2c(-c3ccccc3)cc(=O)oc2c1
inactive: HT-29 > 10 µM | SW-620 36.7 µM | EKVX 43 µM | SN12C 37 µM | HL-60 20.1 µM | TK-10 56.8 µM | SK-MEL-28 35.6 µM | Malme-3M 28.6 µM | NCI-H23 29 µM | M14 36.6 µM | A498 30.2 µM | UACC-257 28.7 µM

CC(=O)/C(=N\O)C(=O)NCc1ccccc1
inactive: HT-29 > 100 µM | SW-620 15.9 µM | KM12 > 100 µM | EKVX > 100 µM | SN12C > 100 µM | NCI-H522 > 100 µM | RXF 393 > 100 µM | CAKI-1 > 100 µM | HL-60 > 100 µM | TK-10 > 100 µM | SK-MEL-28 > 100 µM | Malme-3M > 100 µM | NCI-H23 > 100 µM | A498 > 100 µM | UACC-257 > 100 µM

O=C(CN1CCN(c2ccccc2)CC1)N1CCc2c([nH]c3ccccc23)C1c1cccnc1 (configuration not stated)
inactive: HT-29 > 53.5 µM | SW-620 > 66.8 µM | KM12 97.3 µM | EKVX > 100 µM | SN12C > 82.6 µM | NCI-H522 29.3 µM | RXF 393 9.68 µM | CAKI-1 25.3 µM | HL-60 30.9 µM | TK-10 > 29.4 µM | SK-MEL-28 > 95.3 µM | Malme-3M > 100 µM | NCI-H23 30.5 µM | M14 54.2 µM | A498 > 100 µM | UACC-257 > 100 µM

N#Cc1cc([N+](=O)[O-])ccc1NC(=O)C(=O)Nn1c(S)nc2ccccc2c1=O
inactive: HT-29 > 100 µM | SW-620 > 100 µM | KM12 > 100 µM | EKVX > 100 µM | SN12C > 100 µM | NCI-H522 > 100 µM | RXF 393 > 100 µM | CAKI-1 > 100 µM | HL-60 > 100 µM | TK-10 > 100 µM | SK-MEL-28 > 100 µM | Malme-3M > 100 µM | NCI-H23 > 100 µM | M14 > 100 µM | A498 > 100 µM | UACC-257 > 100 µM

O=[N+]([O-])c1ccc(-c2ccc(C3=Nn4c(CNc5ccccc5Cl)nnc4SC3)o2)cc1
inactive: HT-29 > 100 µM | SW-620 > 100 µM | KM12 > 100 µM | SN12C > 100 µM | NCI-H522 > 100 µM | CAKI-1 > 100 µM | HL-60 > 100 µM | TK-10 > 100 µM | SK-MEL-28 > 100 µM | Malme-3M > 100 µM | NCI-H23 87.9 µM | M14 > 100 µM | UACC-257 > 100 µM

CC(=O)N1CCC2(C=Nc3ccccc32)CC1
inactive: HT-29 > 100 µM | SW-620 > 100 µM | KM12 > 100 µM | EKVX > 100 µM | CAKI-1 > 100 µM | HL-60 > 100 µM | TK-10 > 100 µM | SK-MEL-28 > 100 µM | Malme-3M > 100 µM | NCI-H23 > 100 µM | M14 > 100 µM | A498 > 100 µM | UACC-257 > 100 µM

CN(C)CCNC(=O)c1cccc2c1nc(-c1ccc(F)cc1)c1ccccc12
inactive: HT-29 3.85 µM | SW-620 2.27 µM | KM12 5.93 µM | EKVX 9.38 µM | SN12C 2.77 µM | RXF 393 3.2 µM | CAKI-1 3.27 µM | HL-60 1.22 µM | TK-10 4.03 µM | SK-MEL-28 7.76 µM | NCI-H23 5.71 µM | M14 5.81 µM | A498 2.2 µM | UACC-257 2.95 µM

Cn1nc2ccc3nccc(NCCNCCO)c3c2n1
inactive: HT-29 20.5 µM | SW-620 29.4 µM | KM12 35 µM | SN12C 32.8 µM | NCI-H522 37.5 µM | RXF 393 23.7 µM | CAKI-1 63 µM | HL-60 > 100 µM | TK-10 45.8 µM | SK-MEL-28 39.4 µM | Malme-3M 36.8 µM | NCI-H23 39.4 µM | M14 32.5 µM | UACC-257 27.3 µM

Cc1ccc(NC(=O)/C(Cl)=C(/Cl)C(=O)O)cc1
inactive: HT-29 18.3 µM | SW-620 15.1 µM | KM12 18.7 µM | EKVX 16.1 µM | SN12C 18.5 µM | NCI-H522 1.9 µM | RXF 393 31 µM | CAKI-1 17.3 µM | HL-60 1.64 µM | TK-10 18.7 µM | SK-MEL-28 18.9 µM | Malme-3M 15.6 µM | NCI-H23 17.5 µM | M14 15.2 µM | A498 82.2 µM | UACC-257 22 µM

COc1ccc(NC(=O)C2C(=O)N(c3ccc(OC)cc3)C(=O)/C2=N/O)cc1 (configuration not stated)
inactive: HT-29 38.6 µM | SW-620 > 61.9 µM | KM12 23 µM | EKVX 32.2 µM | SN12C 26.4 µM | NCI-H522 22.7 µM | RXF 393 15.3 µM | CAKI-1 32.7 µM | HL-60 > 100 µM | TK-10 23.9 µM | SK-MEL-28 37.8 µM | Malme-3M 20.4 µM | NCI-H23 43.4 µM | M14 34 µM | A498 30.7 µM | UACC-257 41.6 µM

NNC(=O)C(=O)N/N=C1/CCCC1C(=O)CCC(=O)Nc1ccc(Cl)cc1 (configuration not stated)
inactive: HT-29 > 100 µM | SW-620 > 100 µM | KM12 > 100 µM | EKVX > 100 µM | SN12C > 100 µM | NCI-H522 > 100 µM | RXF 393 > 100 µM | CAKI-1 20.5 µM | HL-60 > 100 µM | TK-10 > 100 µM | SK-MEL-28 > 100 µM | Malme-3M > 100 µM | NCI-H23 > 100 µM | M14 52.2 µM | A498 > 100 µM | UACC-257 > 100 µM

CCCCCCCCCC(=O)N[C@H]1CCc2cc(OC)c(OC)c(OC)c2-c2ccc(SC)c(=O)cc21
active: HT-29 0.0261 µM | SW-620 0.0316 µM | KM12 0.0209 µM | EKVX 0.0527 µM | SN12C 0.0365 µM | NCI-H522 < 0.01 µM | RXF 393 0.0224 µM | CAKI-1 0.056 µM | HL-60 0.034 µM | TK-10 0.759 µM | Malme-3M 0.0226 µM | NCI-H23 0.0216 µM | M14 0.0226 µM | A498 0.0255 µM | UACC-257 0.0417 µM

O=C(Cc1ccccc1)NN1C(=O)C(Cl)C1c1cccc(O)c1 (configuration not stated)
inactive: HT-29 16.7 µM | SW-620 5.2 µM | EKVX 18.6 µM | SN12C 18.5 µM | NCI-H522 9.23 µM | RXF 393 18 µM | CAKI-1 17.9 µM | HL-60 11.8 µM | TK-10 18.9 µM | SK-MEL-28 18.4 µM | Malme-3M 31.6 µM | NCI-H23 17.5 µM | M14 15.3 µM | UACC-257 18.2 µM

COC(=O)C1Cc2c([nH]c3ccccc23)[C@H](CC(C)C)N1 (some centres not stated)
inactive: HT-29 > 100 µM | SW-620 > 100 µM | KM12 > 100 µM | EKVX > 100 µM | SN12C > 100 µM | NCI-H522 > 100 µM | RXF 393 > 100 µM | HL-60 > 100 µM | TK-10 > 100 µM | SK-MEL-28 > 100 µM | Malme-3M > 100 µM | NCI-H23 > 100 µM | M14 > 100 µM | A498 > 100 µM | UACC-257 > 100 µM

[O-][S+](c1ccc(O)cc1)c1ccc(O)cc1
inactive: HT-29 > 100 µM | SW-620 > 100 µM | KM12 > 100 µM | EKVX > 100 µM | NCI-H522 > 100 µM | RXF 393 > 100 µM | CAKI-1 > 100 µM | HL-60 > 100 µM | TK-10 > 100 µM | SK-MEL-28 > 100 µM | Malme-3M > 100 µM | NCI-H23 > 100 µM | M14 > 100 µM | UACC-257 > 100 µM

Nc1nc(O)c2c(ncn2CC(O)CO)n1 (configuration not stated)
inactive: HT-29 > 100 µM | SW-620 > 100 µM | KM12 > 100 µM | EKVX > 100 µM | SN12C > 100 µM | NCI-H522 > 100 µM | RXF 393 > 100 µM | CAKI-1 > 100 µM | HL-60 > 100 µM | TK-10 > 100 µM | SK-MEL-28 > 100 µM | Malme-3M > 100 µM | M14 > 100 µM | A498 > 100 µM | UACC-257 > 100 µM

Cn1c(=O)ccc2cc(C(=O)c3ccccc3)ccc21
inactive: HT-29 46 µM | SW-620 > 100 µM | KM12 > 100 µM | EKVX 34.2 µM | SN12C 46.6 µM | NCI-H522 20.4 µM | CAKI-1 39.4 µM | HL-60 23.6 µM | TK-10 35.2 µM | SK-MEL-28 > 100 µM | Malme-3M > 100 µM | NCI-H23 55 µM | M14 > 100 µM | A498 32.6 µM

C=CC(Br)(CBr)CCC(Br)C(C)(C)Br (configuration not stated)
inactive: HT-29 13.2 µM | SW-620 13.7 µM | KM12 9.14 µM | SN12C 15.6 µM | NCI-H522 15.8 µM | RXF 393 14.7 µM | CAKI-1 22.8 µM | TK-10 16.4 µM | SK-MEL-28 15.9 µM | Malme-3M 16.6 µM | NCI-H23 15.7 µM | M14 15 µM | UACC-257 13.9 µM
